From PMC8286840, “Identifying SARS-CoV-2 antiviral compounds by screening for small molecule inhibitors of Nsp3 papain-like protease” (Biochemical Journal, 2021)
Where a name gives a salt, the structure may show the parent alone. Read-outs that look alike come from different tables or passages of the source. Where a SMILES comes first, the peptide text is derived from it.

Tests used:
[1] = target: T1, SARS-CoV-2 PLpro (nsp3 1564–1878) (Severe acute respiratory syndrome coronavirus 2, UniProt P0DTD1); test: biochemical; design: FRET-quenched peptide (Pro3) cleavage by PLpro, 10 min pre-incubation, slope over 20 min, normalised to no-compound control; details: high concentration screen, read-out: % of control remaining
[2] = target: T1, SARS-CoV-2 PLpro (nsp3 1564–1878); test: biochemical; design: FRET-quenched peptide (Pro3) cleavage by PLpro, 10 min pre-incubation, slope over 20 min, normalised to no-compound control; details: low concentration screen, read-out: % of control remaining

With `Cc1cc(Cc2cc(C)cc(C(C)(C)C)c2O)c(O)c(C(C)(C)C)c1` [GERI-BP002A] the remaining activity at 3.75 µM ([1]; Well no.=3907) was 97.7% and the remaining activity at 1.25 µM ([2]; Well no.=3907) was 104%.

`CC1(NC2=NS(=O)(=O)c3sc(Cl)cc3N2)CC1` [NN414] was tested, and the remaining activity at 3.75 µM ([1]; Well no.=5436) was 104% and the remaining activity at 1.25 µM ([2]; Well no.=5436) was 103%.

In the case of `CCCCCCCCCCCCCC(=O)O` [Tetradecanoic acid], the remaining activity at 3.75 µM ([1]; Well no.=4266) is reported as 95.8% and the remaining activity at 1.25 µM ([2]; Well no.=4266) is reported as 102%.

`O=C1NC(=O)/C(=C/c2cccc(C(F)(F)F)c2)S1` [SMI-4a] showed a remaining activity at 3.75 µM ([1]; Well no.=4788) of 101% and a remaining activity at 1.25 µM ([2]; Well no.=4788) of 104%.

For `CC(C)(C)[C@]1(O)CCN2C[C@H]3c4ccccc4CCc4cccc(c43)[C@@H]2C1` [(+)-Butaclamol hydrochloride], the remaining activity at 3.75 µM ([1]; Well no.=732) was 98.3% and the remaining activity at 1.25 µM ([2]; Well no.=732) was 98.3%.

`CCCCC/C=C\C/C=C\C/C=C\C/C=C\CCCC(=O)OC(CO)CO` [2-Arachidonoylglycerol] showed a remaining activity at 3.75 µM ([1]; Well no.=4505) of 88.7% and a remaining activity at 1.25 µM ([2]; Well no.=4505) of 94.8%.

With `Cc1ccccc1N=Nc1ccc(NC(=O)c2ccnn2C)c(C)c1` [CH-223191] the remaining activity at 3.75 µM ([1]; Well no.=5835) was 98.7%, the remaining activity at 3.75 µM ([1]; Well no.=7892) was 95.5% and the remaining activity at 1.25 µM ([2]; Well no.=5835) was 97.1%. It also gave a remaining activity at 1.25 µM ([2]; Well no.=7892) of 99.1%.

`COc1ccccc1N1CCN(CCN2C(=O)CC3(CCCC3)CC2=O)CC1` [BMY 7378 dihydrochloride] was tested, and the remaining activity at 3.75 µM ([1]; Well no.=229) was 100% and the remaining activity at 1.25 µM ([2]; Well no.=229) was 98.4%.

For `C[C@H](NC(=O)[C@@H](N)CCC(=O)O)C(=O)O` [_-L-Glutamyl-L-alanine] (H-Glu-Ala-OH), the remaining activity at 3.75 µM ([1]; Well no.=7750) was 104% and the remaining activity at 1.25 µM ([2]; Well no.=7750) was 105%.

In the case of `O=C1c2c(O)ccc(O)c2C(=O)c2c(NCCNCCO)ccc(NCCNCCO)c21` [Mitoxantrone HCl], the remaining activity at 3.75 µM ([1]; Well no.=4904) is reported as 91.1% and the remaining activity at 1.25 µM ([2]; Well no.=4904) is reported as 93.4%.

For `CN1C[C@H](C(=O)N[C@]2(C)O[C@@]3(O)[C@@H]4CCCN4C(=O)[C@H](Cc4ccccc4)N3C2=O)C=C2c3cccc4[nH]cc(c34)C[C@H]21` [Ergotamine], the remaining activity at 3.75 µM ([1]; Well no.=1726) was 98.3% and the remaining activity at 1.25 µM ([2]; Well no.=1726) was 99.5%.

`CN1C[C@H](CNC(=O)OCc2ccccc2)C[C@@H]2c3cccc4c3c(cn4C)C[C@H]21` [Metergoline] showed a remaining activity at 3.75 µM ([1]; Well no.=782) of 100% and a remaining activity at 1.25 µM ([2]; Well no.=782) of 99.4%.

For `CC(C)n1c(/C=C/[C@H](O)C[C@H](O)CC(=O)O)c(-c2ccc(F)cc2)c2ccccc21` [Fluvastatin], the remaining activity at 3.75 µM ([1]; Well no.=1902) was 98.9% and the remaining activity at 1.25 µM ([2]; Well no.=1902) was 97.7%.

With `O=c1oc(Cl)c(Cl)c2ccccc12` [3,4-Dichloroisocoumarin] the remaining activity at 3.75 µM ([1]; Well no.=582) was 103% and the remaining activity at 1.25 µM ([2]; Well no.=582) was 100%.

`CN1CCN2c3c(cccc31)[C@@H]1CN(CCCC(=O)c3ccc(F)cc3)CC[C@@H]12` [lumateperone (Tosylate)] was tested, and the remaining activity at 3.75 µM ([1]; Well no.=7807) was 108% and the remaining activity at 1.25 µM ([2]; Well no.=7807) was 104%.

`NC(=O)C(c1ccccc1)(c1ccccc1)[C@@H]1CCN(CCc2ccc3c(c2)CCO3)C1` [Darifenacin HBr] was tested, and the remaining activity at 3.75 µM ([1]; Well no.=5361) was 97.1% and the remaining activity at 1.25 µM ([2]; Well no.=5361) was 104%.

With `CCO[C@H]1CN([C@H]2CC[C@@](O)(c3ccc4c(c3)OCO4)CC2)C[C@@H]1NC(=O)CNC(=O)c1cccc(C(F)(F)F)c1` [INCB3344] the remaining activity at 3.75 µM ([1]; Well no.=8605) was 102% and the remaining activity at 1.25 µM ([2]; Well no.=8605) was 108%.

For `Cc1ccc(-c2nc(N)nc3c2nnn3Cc2cccc(CO[C@H]3CCOC3)n2)o1` [CPI-444], the remaining activity at 3.75 µM ([1]; Well no.=8549) was 97% and the remaining activity at 1.25 µM ([2]; Well no.=8549) was 105%.

With `C[C@@H](C(=O)Nc1ccc(Cl)cc1)[C@H]1CC[C@@H](c2ccnc3ccc(F)cc32)CC1` [Linrodostat] the remaining activity at 3.75 µM ([1]; Well no.=8267) was 99.1% and the remaining activity at 1.25 µM ([2]; Well no.=8267) was 97.9%.

Compound `CC(C)CN(C)c1nc(N)c(C(=O)N=C(N)N)nc1Cl` [5-(N-Methyl-N-isobutyl)amiloride] has a remaining activity at 3.75 µM ([1]; Well no.=209) of 100% and a remaining activity at 1.25 µM ([2]; Well no.=209) of 99.9%.

Compound `Nc1ncnc2c1ncn2[C@H]1CC[C@@H](CO)O1` [2',3'-Dideoxyadenosine] has a remaining activity at 3.75 µM ([1]; Well no.=7998) of 94.3% and a remaining activity at 1.25 µM ([2]; Well no.=7998) of 97.5%.

`Cc1nn(C)c2c1C(c1ccc(C(F)(F)F)cc1)C(C#N)=C(N)O2` (centres unmarked) [BQU57] showed a remaining activity at 3.75 µM ([1]; Well no.=7957) of 94.7% and a remaining activity at 1.25 µM ([2]; Well no.=7957) of 103%.

`O=c1c(O)c(-c2ccc(O)c(O)c2)oc2cc(O)cc(O)c12` [Quercetin dihydrate] showed a remaining activity at 3.75 µM ([1]; Well no.=1315) of 104% and a remaining activity at 1.25 µM ([2]; Well no.=1315) of 102%.

With `Nc1cccc(-c2cc3c(Oc4cccc(O)c4)ncnc3[nH]2)c1` [TWS119] the remaining activity at 3.75 µM ([1]; Well no.=4612) was 99.7% and the remaining activity at 1.25 µM ([2]; Well no.=4612) was 100%.

Compound `Nc1ccn([C@H]2CC[C@@H](CO)O2)c(=O)n1` [2',3'-dideoxycytidine] has a remaining activity at 3.75 µM ([1]; Well no.=549) of 96.6% and a remaining activity at 1.25 µM ([2]; Well no.=549) of 98.3%.

`O=C(NNC(=O)c1ccc(CNS(=O)(=O)c2ccc(F)c(Cl)c2)cc1)c1ccccc1` [TCN-201] was tested, and the remaining activity at 3.75 µM ([1]; Well no.=5514) was 97.4% and the remaining activity at 1.25 µM ([2]; Well no.=5514) was 96.4%.

With `COc1ccc2c(c1)c(CC(=O)OCC(=O)O)c(C)n2C(=O)c1ccc(Cl)cc1` [Acemetacin] the remaining activity at 3.75 µM ([1]; Well no.=2037) was 97.7% and the remaining activity at 1.25 µM ([2]; Well no.=2037) was 99.2%.

`Cc1oc(-c2ccccc2)nc1CCC(=O)c1ccc(CC2SC(=O)NC2=O)cc1` (centres unmarked) [Darglitazone sodium salt] gave a remaining activity at 3.75 µM ([1]; Well no.=5504) of 98% and a remaining activity at 1.25 µM ([2]; Well no.=5504) of 90.6%.

`Cc1cn([C@@H]2C[C@@H](O)[C@H](CO)O2)c(=O)[nH]c1=O` [Telbivudine] showed a remaining activity at 3.75 µM ([1]; Well no.=8380) of 92.3%, a remaining activity at 3.75 µM ([1]; Well no.=8839) of 96.3% and a remaining activity at 1.25 µM ([2]; Well no.=8380) of 92.4%. It also gave a remaining activity at 1.25 µM ([2]; Well no.=8839) of 98.6%.

`O=C(/C=C/c1cccnc1)NCCCCC1CCN(C(=O)c2ccccc2)CC1` [APO866 (FK866)] was tested, and the remaining activity at 3.75 µM ([1]; Well no.=5123) was 94.7% and the remaining activity at 1.25 µM ([2]; Well no.=5123) was 99%.

Work on `NCC(O)c1ccccc1` (centres unmarked) [2-Amino-1-phenylethanol] yielded a remaining activity at 3.75 µM ([1]; Well no.=7217) of 96.7% and a remaining activity at 1.25 µM ([2]; Well no.=7217) of 95.5%.

Compound `CNC(=O)c1ccc(N2C(=S)N(c3cnc(C#N)c(C(F)(F)F)c3)C(=O)C23CCC3)cc1F` [ARN-509] has a remaining activity at 3.75 µM ([1]; Well no.=5169) of 101% and a remaining activity at 1.25 µM ([2]; Well no.=5169) of 105%.

Compound `COc1ccccc1Oc1c(NS(=O)(=O)c2ccc(C(C)(C)C)cc2)nc(-c2ncccn2)nc1OCCO` [Bosentan] has a remaining activity at 3.75 µM ([1]; Well no.=2246) of 95%, a remaining activity at 3.75 µM ([1]; Well no.=7575) of 96.3% and a remaining activity at 1.25 µM ([2]; Well no.=2246) of 93.3%. The remaining activity at 1.25 µM ([2]; Well no.=7575) was 98.7%.

`C#CCN1C(C)=C(C(=O)OC)C(c2cccc([N+](=O)[O-])c2)C(C(=O)OCC)=C1C` (centres unmarked) [MRS 1845] was tested, and the remaining activity at 3.75 µM ([1]; Well no.=968) was 96.5% and the remaining activity at 1.25 µM ([2]; Well no.=968) was 95.8%.
